For orientation: viability means a read-out of living cells in per cent, often relative to untreated cells. One may read the CC50 as the concentration that lowers cell viability or growth by half.

Consider ten compounds from article PMC6301270 (MedChemComm, 2018).

For data set [1], the system named is T.b. brucei (strain 427) bloodstream form parasites. Nature of the data set: Trypanosoma brucei assay, dose–response (this study). To be noted: for IC50: Trypanosoma brucei; for Selectivity index: calculated as IC50(HeLa)/IC50(T.bb). The class given is cell-based.
The test system of the next data set is HeLa cells. Nature of the data set: HeLa cell assay (cytotoxicity). The class given is cell-based. The settings on record: Homo sapiens.
In the next data set the test system is plasmodial. The arrangement: method as in PMID 22390538. To be noted: screen of the SoftFocus kinase library; cited from earlier work.
Another data set has as its system Leishmaniasis donovani. The arrangement: method as in Duffy et al. To be noted: ref Duffy et al.; cited from earlier work.
Data set [2] relates to T.b. brucei (strain 427) bloodstream form parasites. Briefly: T.b. brucei single concentration screen (10 μM). The settings on record: for viability at 10 µM: Trypanosoma brucei, read-out: T.b.brucei % viability (10 µM); for T.b.brucei % viability (10 µM): single concentration 10 µM, % parasite viability relative to non-treated parasites.
For a further data set, the system named is HepG2 cells. The arrangement: method as in Pathogen Box. To be noted: ref Pathogen Box, read-out: CC50 against HepG2 cells; cited from earlier work.
For another data set, the system named is mycobacterial. The arrangement: method as in PMID 23268609. To be noted: inhibits the ATPase domain of DNA gyrase B; cited from earlier work.
Data set [3] concerns M. tuberculosis CTP synthase, PyrG. The arrangement: method as in PMID 28475832. The settings on record: cited from earlier work.
For data set [4], the system named is T.b. brucei. The arrangement: method as in PMID 28674055. The settings on record: cited from earlier work; for IC50: Table 1, kinetoplastid category of the Pathogen Box, read-out: T. brucei brucei IC50 (μM) Duffy et al.
Data set [5] concerns T.b. brucei. The arrangement: method as in https://www.pathogenbox.org/. The settings on record: ref https://www.pathogenbox.org/, cited from earlier work; for IC50: Table 1, kinetoplastid category, read-out: T. brucei brucei IC50 (μM) Pathogen Box.
In a further data set the test system is T. brucei culture. The arrangement: method as in PMID 22148754, PMID 20360736. The settings on record: through selective inhibition of T. brucei N-myristoyl transferase; cited from earlier work.
For a further data set, the system named is kinetoplastid. The arrangement: method as in PMID 25740547. The settings on record: screen of 1.8 million compounds; cited from earlier work.
Setting [6] is: Table 2, remaining Pathogen Box, 48 hours at 37 °C, resazurin, read-out: T. brucei brucei IC50 (μM) This study.
Where [7] appears, read: pIC50 values (M), read-out: pIC50 (T.b. brucei), this study (converted).
Where [8] appears, read: Table 2, HeLa cells, 48 hours, resazurin, read-out: HeLa IC50.
The mark [9] stands for this setting: HeLa, 48 h, read-out: HeLa IC50 (μM).

Entries after “also recorded” stand apart in the source; their conditions may differ. Where two headings read alike, the source gives them in different places.

On to `COc1cc(-c2cc(-c3ccc(S(C)(=O)=O)cc3)cnc2N)ccc1O` [Compound 53, COc1cc(ccc1O)c2cc(cnc2N)c3ccc(cc3)S(=O)(=O)C], for which the “T.b. brucei inhibition in words, this study” value in data set [1] is reported as “sub-micromolar inhibitors; also recorded: sub-micromolar range; also recorded: activity in the nanomolar range”. Moreover, the results for the IC50 (in [1] (setting [6]); in [1] (setting [7]); with HeLa cells (setting [8])) were 0.33 µM, < 1 µM and > 25 µM, respectively. In the data set with plasmodial, the Anti-plasmodial activity entry was “potent and selective”. Also, the “Inhibition of Leishmaniasis donovani” value in the data set with Leishmaniasis donovani is “moderate inhibitor”. For the same compound, the viability at 10 µM in data set [2] came to 1%.
Consider `CN1CCN(CCCOc2ncc(Nc3ncc(-c4ccc(C(F)(F)F)c(F)c4)nc3C(N)=O)cn2)CC1` [Compound 46, CN1CCN(CCCOc2ncc(Nc3ncc(nc3C(=O)N)c4ccc(c(F)c4)C(F)(F)F)cn2)CC1], for which the “T.b. brucei inhibition in words, this study” value in data set [1] is reported as “sub-micromolar inhibitors; also recorded: sub-micromolar range”. The IC50 in data set [1] (setting [6]) is 0.87 µM; in data set [1] (setting [7]), < 1 µM; in the data set with HeLa cells (setting [8]), 4.8 µM. For the same compound, the Selectivity index in data set [1] is 5.5. For the same compound, in the data set with HepG2 cells, the half-maximal cytotoxic concentration (CC50) was 3900 nM. Besides, the “In vitro anti-mycobacterial activity” value with mycobacterial is “potent”. Further, the viability at 10 µM in data set [2] stood at 3%.
As to `O=C(COc1cccc(F)c1)Nc1nc(-c2ccccn2)cs1` [Compound 43, Fc1cccc(OCC(=O)Nc2nc(cs2)c3ccccn3)c1], the IC50 with HeLa cells (setting [9]) is > 25 µM. The “Inhibition of M. tuberculosis CTP synthase, PyrG” value in data set [3] was “moderate inhibitors”. For the same compound, the viability at 10 µM in data set [2] was 3%.
`CCc1c(C)nc(-n2nc(C)cc2NC(=O)c2ccccc2SC)[nH]c1=O` [Compound 39, CCC1=C(C)N=C(NC1=O)n2nc(C)cc2NC(=O)c3ccccc3SC]: the “T.b. brucei inhibition in words, this study” value in [1] is reported as “sub-micromolar inhibitors; also recorded: sub-micromolar range”. In addition, the IC50 in data set [1] (setting [6]) is 0.59 µM; in [1] (setting [7]), < 1 µM; with HeLa cells (setting [8]), 2.6 µM. The Selectivity index in data set [1] was 4.4. Besides, the CC50 with HepG2 cells was 1300 nM. Besides, the viability at 10 µM in [2] amounted to 2%.
Consider `O=C(Nc1ccccc1)c1ccc(-c2cc3ccncc3cc2OC2CCNCC2)s1` [Compound 51, O=C(Nc1ccccc1)c2ccc(s2)c3cc4ccncc4cc3OC5CCNCC5], for which, in data set [1], the “T.b. brucei inhibition in words, this study” value was “selectively inhibited T.b. brucei, albeit moderately” and the Selectivity index is 7.5. Besides, the IC50 in [1] (setting [6]) came to 1 µM. Moreover, the IC50 in the data set on HeLa cells (setting [8]) stood at 7.5 µM. Also, in the data set on T.b. brucei [4], the “T.b. brucei inhibition in words, Duffy et al.” value is listed as “moderate inhibition”. Moreover, the viability at 10 µM in data set [2] came to 1%.
On to `Cc1nn(C)c(C)c1NS(=O)(=O)c1c(Cl)cc(-c2ccnc(N3CCNCC3)c2)cc1Cl` [Compound 1, Cc1nn(C)c(C)c1NS(=O)(=O)c2c(Cl)cc(cc2Cl)c3ccnc(c3)N4CCNCC4], for which the IC50 in data set [1] (48 h, read-out: T. brucei brucei IC50 (μM) This study) was 11 µM; with HeLa cells (setting [9]) it was 2.8 µM; in the data set with T.b. brucei [5], < 0.13 µM. Besides, in the data set on T. brucei culture, the “Inhibition of T. brucei culture” value was “moderate inhibitor”. For the same compound, the viability at 10 µM in data set [2] was 2%.
As to `c1ccc(Oc2ccc(-c3cc(C4CCOCC4)[nH]n3)cc2)cc1` [Compound 23, C1CC(CCO1)c2cc(n[nH]2)c3ccc(Oc4ccccc4)cc3], the IC50 with T.b. brucei [4] is ≥ 1 µM. Also, in the data set on T.b. brucei [5], the IC50 was 7.58 µM. Moreover, in [2], the viability at 10 µM was 82% and the “T.b.brucei % viability (10 µM)” value is reported as “did not sufficiently reduce cell viability”.
With `Cc1nn2c(=O)c3c([nH]c2c1-c1ccc(Cl)cc1)CCCC3` [Compound 24, Cc1nn2C(=O)C3=C(CCCC3)Nc2c1c4ccc(Cl)cc4], the IC50 in the data set on T.b. brucei [4] was ≥ 1 µM. Moreover, in the data set on T.b. brucei [5], the “T.b. brucei activity in words, Pathogen Box” value is given as “sub-micromolar range”. Moreover, in [2], the viability at 10 µM worked out at 19% and the “T.b.brucei % viability (10 µM)” value is on record as “did not sufficiently reduce cell viability”.
With TCMDC 142497 [Compound 70], the Kinetoplastid inhibition result in the data set on kinetoplastid is recorded as “potent kinetoplastid inhibitor”.
Consider `CC(Oc1ccccc1)C(=O)Nc1nc(-c2ccccn2)cs1` (stereo not drawn) [Compound 40, CC(Oc1ccccc1)C(=O)Nc2nc(cs2)c3ccccn3], for which, in data set [1], the “T.b. brucei inhibition in words, this study” value is reported as “sub-micromolar range”. Besides, the IC50 in data set [1] (setting [6]) is 0.76 µM; in data set [1] (setting [7]), < 1 µM; in the data set with HeLa cells (setting [8]) it was 8.4 µM. Further, the “Inhibition of M. tuberculosis CTP synthase, PyrG” value in data set [3] is “moderate inhibitors”. Also, the viability at 10 µM in data set [2] was 2%.
